Reference: patent US10590085B2, “Heterocyclic amides as kinase inhibitors” (GlaxoSmithKline Intellectual Property Development Limited, priority 2015, dated 2020)

The compounds below were run on human monocytic leukemia U937 cells (assay: necroptosis assay in U937 cells). Settings: Homo sapiens, U-937, U937 cells; viability by cellular ATP (Cell Titer-Glo); read-out: mean pIC50, inhibition of necrosis in U937 cells (converted).
Type: cell-based
Protocol: The efficacy of RIP1 inhibitors can be tested […] in vitro using a human monocytic leukemia U937 or mouse L929 fibrosarcoma cells in a necroptosis assay. As determined using the method described in He, S. et al. 2009. Cell 137(6):1100-1111 and International Patent Appln. No. PCT/IB2014/059004, now, International Patent Appln. Pub.
Viability was measured by quantitating cellular levels of ATP using the Cell Titer-Glo kit. All data are means±standard deviation of the mean.

`O=C(C1CCN(c2ncc(F)cn2)CC1)N1N=CCC1c1ccccc1` (stereo not shown) [Example 6, (1-(5-fluoropyrimidin-2-yl)piperidin-4-yl)(5-phenyl-4,5-dihydro-1H-pyrazol-1-yl)methanone] and `CC1=NN(C(=O)C2CCN(c3ncc(F)cn3)CC2)C(c2ccccc2)C1` (stereo not shown) [Example 87, (1-(5-fluoro-pyrimidin-2-yl)-piperidin-4-yl)(3-methyl-5-phenyl-4,5-dihydro-1H-pyrazol-1-yl)-methanone] fall in the same range of IC50: 1 to 100 nM for the first, 1 to 100 nM for the second.

`O=C(C1CCN(c2ncc(F)cn2)CC1)N1N=CCC1c1cncc(F)c1` (stereo not shown) [Example 9] and `O=C(C1CCN(c2ncc(F)cn2)CC1)N1N=CC[C@H]1c1cncc(F)c1` [Example 10, (S)-(5-(5-fluoropyridin-3-yl)-4,5-dihydro-1H-pyrazol-1-yl)(1-(5-fluoro-pyrimidin-2-yl)piperidin-4-yl)methanone] fall in the same range of IC50: 1 to 100 nM for the first, 1 to 100 nM for the second.

`CC(C)(C)C(=O)N1N=CCC1c1cncc(F)c1` (stereo not shown) [Example 14, 1-(5-(5-fluoro-pyridin-3-yl)-4,5-dihydro-1H-pyrazol-1-yl)-2,2-dimethyl-propan-1-one] and `CC(C)(C)C(=O)N1N=CCC1c1cccc(F)c1` (stereo not shown) [Example 67, 1-(5-(3-fluoro-phenyl)-4,5-dihydro-1H-pyrazol-1-yl)-2,2-dimethylpropan-1-one 2,2,2-trifluoroacetate] fall in the same range of IC50: 1 to 100 nM for the first, 1 to 100 nM for the second.

`O=C(C1CCN(c2ccccc2)CC1)N1N=CCC1c1ccccc1` (stereo not shown) [Example 18, (5-phenyl-4,5-dihydro-1H-pyrazol-1-yl)(1-phenylpiperidin-4-yl)-methanone] and `O=C(C1CCN(c2ccccc2)CC1)N1N=CC[C@H]1c1ccccc1` [Example 19, (S)-(5-phenyl-4,5-dihydro-1H-pyrazol-1-yl)(1-phenyl-piperidin-4-yl)-methanone] fall in the same range of IC50: 1 to 100 nM for the first, 1 to 100 nM for the second.

`O=C(C1CCCC1)N1N=CCC1c1ccccc1` (stereo not shown) [Example 22, cyclopentyl(5-phenyl-4,5-dihydro-1H-pyrazol-1-yl)methanone] and `O=C(c1ccon1)N1CCC(C(=O)N2N=CCC2c2ccccc2)CC1` (stereo not shown) [Example 153, isoxazol-3-yl(4-(5-phenyl-4,5-dihydro-1H-pyrazole-1-carbonyl)piperidin-1-yl)methanone] fall in the same range of IC50: 1 to 100 nM for the first, 1 to 100 nM for the second.

Compared with `Cc1cccc(C(=O)N2N=CCC2c2ccccc2)c1` (stereo not shown) [Example 23, (5-phenyl-4,5-dihydro-1H-pyrazol-1-yl)(m-tolyl) methanone], `O=C(c1ccccc1)N1N=CCC1c1ccccc1` (stereo not shown) [Example 64, phenyl(5-phenyl-4,5-dihydro-1H-pyrazol-1-yl)-methanone 2,2,2-trifluoroacetate] is 1.6-fold lower in IC50: about 501 nM for the first, about 316 nM for the second.

Compared with `CC(C)(C)C(=O)N1N=CC[C@H]1c1cccnc1` [Example 42, (S)-2,2-dimethyl-1-(5-(pyridin-3-yl)-4,5-dihydro-1H-pyrazol-1-yl)-propan-1-one], `CC(C)(C)C(=O)N1N=CCC1c1cccc(Cl)c1` (stereo not drawn) [Example 43, 1-(5-(3-chlorophenyl)-4,5-dihydro-1H-pyrazol-1-yl)-2,2-dimethyl propan-l-one] is lower in IC50: about 251 nM for the first, 1 to 100 nM for the second.

`Cc1ccc(C2CC=NN2C(=O)C(C)(C)C)c(F)c1` (stereo not shown) [Example 53, 1-(5-(2-fluoro-4-methylphenyl)-4,5-dihydro-1H-pyrazol-1-yl)-2,2-dimethyl-propan-1-one] and `Cc1ccc(C2CC=NN2C(=O)C(C)(C)C)cc1F` (stereo not shown) [Example 54, 1-(5-(3-fluoro-4-methylphenyl)-4,5-dihydro-1H-pyrazol-1-yl)-2,2-dimethyl-propan-1-one] fall in the same range of IC50: 1 to 100 nM for the first, 1 to 100 nM for the second.

`Cc1ccc(C2CC=NN2C(=O)C(C)(C)C)cc1` (stereo not shown) [Example 58, 2,2-dimethyl-1-(5-(p-tolyl)-4,5-dihydro-1H-pyrazol-1-yl)propan-1-one] and `CC(C)(C)C(=O)N1N=CCC1c1ccc(Cl)cc1` (stereo not shown) [Example 65, 1-(5-(4-chloro-phenyl)-4,5-dihydro-1H-pyrazol-1-yl)-2,2-dimethyl-propan-1-one] fall in the same range of IC50: 1 to 100 nM for the first, 1 to 100 nM for the second.

`Cc1ccccc1C1CC=NN1C(=O)C(C)(C)C` (stereo not shown) [Example 60, 2,2-dimethyl-1-(5-(o-tolyl)-4,5-dihydro-1H-pyrazol-1-yl)propan-1-one] and `CC(C)(C)C(=O)N1N=CCC1c1cccc(C#N)c1` (stereo not shown) [Example 80, 3-(1-pivaloyl-4,5-dihydro-1H-pyrazol-5-yl)benzonitrile] fall in the same range of IC50: 1 to 100 nM for the first, 1 to 100 nM for the second.

`Cc1cc(F)cc(C2CC=NN2C(=O)C(C)(C)C)c1` (stereo not shown) [Example 76, 1-(5-(3-fluoro-5-methylphenyl)-4,5-dihydro-1H-pyrazol-1-yl)-2,2-dimethyl-propan-1-one] and `CC(C)(C)C(=O)N1N=CC[C@H]1c1ccc(C#N)cc1` [Example 79, (S)-4-(1-pivaloyl-4,5-dihydro-1H-pyrazol-5-yl)-benzonitrile] fall in the same range of IC50: 1 to 100 nM for the first, 1 to 100 nM for the second.

`CC1=NN(C(=O)C(C)(C)C)C(c2ccccc2)C1` (stereo not shown) [Example 81, 2,2-dimethyl-1-(3-methyl-5-phenyl-4,5-dihydro-1H-pyrazol-1-yl)-propan-1-one] and `O=C(c1cccs1)N1N=CCC1c1ccccc1` (stereo not shown) [Example 174, (5-phenyl-4,5-dihydro-1H-pyrazol-1-yl)(thiophen-2-yl)methanone 2,2,2-trifluoroacetate] are within 1.5-fold of each other in IC50: about 631 nM for the first, about 501 nM for the second.

`O=C(c1cccc(Cl)n1)N1CCC(C(=O)N2N=CCC2c2ccccc2)CC1` (stereo not shown) [Example 105, (1-(6-chloro-picolinoyl)piperidin-4-yl)(5-phenyl-4,5-dihydro-1H-pyrazol-1-yl)methanone] and `O=C(c1ccc(F)cn1)N1CCC(C(=O)N2N=CCC2c2ccccc2)CC1` (stereo not shown) [Example 108, (1-(5-fluoro-picolinoyl)piperidin-4-yl)(5-phenyl-4,5-dihydro-1H-pyrazol-1-yl)methanone] fall in the same range of IC50: 1 to 100 nM for the first, 1 to 100 nM for the second.

`O=C(c1nccs1)N1CCC(C(=O)N2N=CCC2c2ccccc2)CC1` (stereo not shown) [Example 112, (5-phenyl-4,5-dihydro-1H-pyrazol-1-yl)(1-(thiazole-2-carbonyl)piperidin-4-yl)methanone] and `O=C(c1ccns1)N1CCC(C(=O)N2N=CCC2c2ccccc2)CC1` (stereo not shown) [Example 125, isothiazol-5-yl(4-(5-phenyl-4,5-dihydro-1H-pyrazole-1-carbonyl)piperidin-1-yl)methanone] fall in the same range of IC50: 1 to 100 nM for the first, 1 to 100 nM for the second.

`O=C(c1cocn1)N1CCC(C(=O)N2N=CCC2c2ccccc2)CC1` (stereo not shown) [Example 114, oxazol-4-yl(4-(5-phenyl-4,5-dihydro-1H-pyrazole-1-carbonyl)piperidin-1-yl)methanone] and `O=C(c1cscn1)N1CCC(C(=O)N2N=CCC2c2ccccc2)CC1` (stereo not shown) [Example 154, (5-phenyl-4,5-dihydro-1H-pyrazol-1-yl)(1-(thiazole-4-carbonyl)piperidin-4-yl)methanone] fall in the same range of IC50: 1 to 100 nM for the first, 1 to 100 nM for the second.

`Cc1ccc(C(=O)N2CCC(C(=O)N3N=CCC3c3ccccc3)CC2)s1` (stereo not shown) [Example 122, (5-methylthiophen-2-yl)(4-(5-phenyl-4,5-dihydro-1H-pyrazole-1-carbonyl)piperidin-1-yl)methanone] and `Cc1ncc(C(=O)N2CCC(C(=O)N3N=CCC3c3ccccc3)CC2)s1` (stereo not shown) [Example 124, (2-methylthiazol-5-yl)(4-(5-phenyl-4,5-dihydro-1H-pyrazole-1-carbonyl)piperidin-1-yl)methanone] fall in the same range of IC50: 1 to 100 nM for the first, 1 to 100 nM for the second.

`O=C(c1ccc(F)cc1)N1CCC(C(=O)N2N=CCC2c2ccccc2)CC1` (stereo not shown) [Example 130, (1-(4-fluoro-benzoyl)piperidin-4-yl)(5-phenyl-4,5-dihydro-1H-pyrazol-1-yl)methanone] and `O=C(c1ccccc1)N1CCC(C(=O)N2N=CCC2c2ccccc2)CC1` (stereo not shown) [Example 164, (1-benzoylpiperidin-4-yl)(5-phenyl-4,5-dihydro-1H-pyrazol-1-yl)methanone] fall in the same range of IC50: 1 to 100 nM for the first, 1 to 100 nM for the second.

`O=C(c1ccc(F)cc1F)N1CCC(C(=O)N2N=CCC2c2ccccc2)CC1` (stereo not shown) [Example 131, (1-(2,4-difluorobenzoyl)piperidin-4-yl)(5-phenyl-4,5-dihydro-1H-pyrazol-1-yl)-methanone] and `O=C(c1ccno1)N1CCC(C(=O)N2N=CCC2c2ccccc2)CC1` (stereo not shown) [Example 151, isoxazol-5-yl(4-(5-phenyl-4,5-dihydro-1H-pyrazole-1-carbonyl)piperidin-1-yl)methanone] fall in the same range of IC50: 1 to 100 nM for the first, 1 to 100 nM for the second.

`O=C(c1nc2ccccc2s1)N1CCC(C(=O)N2N=CCC2c2ccccc2)CC1` (stereo not shown) [Example 139, beno[d]thiazol-2-yl(4-(5-phenyl-4,5-dihydro-1H-pyrazole-1-carbonyl)piperidin-1-yl)methanone] and `O=C(c1n[nH]c2ccccc12)N1CCC(C(=O)N2N=CCC2c2ccccc2)CC1` (stereo not shown) [Example 140, (1-(1H-indazole-3-carbonyl)piperidin-4-yl)(5-phenyl-4,5-dihydro-1H-pyrazol-1-yl)methanone] fall in the same range of IC50: 1 to 100 nM for the first, 1 to 100 nM for the second.

`O=C(c1noc2ccccc12)N1CCC(C(=O)N2N=CCC2c2ccccc2)CC1` (stereo not shown) [Example 146, benzo[d]isoxazol-3-yl(4-(5-phenyl-4,5-dihydro-1H-pyrazole-1-carbonyl)piperidin-1-yl)methanone] and `Cn1cccc1C(=O)N1CCC(C(=O)N2N=CCC2c2ccccc2)CC1` (stereo not shown) [Example 175, (1-methyl-1H-pyrrol-2-yl)(4-(5-phenyl-4,5-dihydro-1H-pyrazole-1-carbonyl)piperidin-1-yl)methanone 2,2,2-trifluoroacetalc] fall in the same range of IC50: 1 to 100 nM for the first, 1 to 100 nM for the second.

`O=C(c1cnco1)N1CCC(C(=O)N2N=CCC2c2ccccc2)CC1` (stereo not shown) [Example 147, oxazol-5-yl(4-(5-phenyl-4,5-dihydro-1H-pyrazole-1-carbonyl)piperidin-1-yl)methanone] and `O=C(c1ncco1)N1CCC(C(=O)N2N=CCC2c2ccccc2)CC1` (stereo not shown) [Example 148, oxazol-2-yl(4-(5-phenyl-4,5-dihydro-1H-pyrazole-1-carbonyl)piperidin-1-yl)methanone] fall in the same range of IC50: 1 to 100 nM for the first, 1 to 100 nM for the second.

`O=C(C1CCN(c2ncccn2)CC1)N1N=CCC1c1ccccc1` (stereo not shown) [Example 171, (5-phenyl-4,5-dihydro-1H-pyrazol-1-yl)(1-(pyrimidin-2-yl)piperidin-4-yl)methanone] was tested, and the IC50 was 1 to 100 nM.
